Key:
DPP4 = DPP4 (Homo sapiens, UniProt P27487); assay: DPP4 inhibition, fluorogenic substrate H-Gly-Pro-AMC; assay type: biochemical; parameters: purchased R&D Systems; details: for inhibition at 1 µM: read-out: hDPP4 inhibition % at 1 μM; for IC50: recombinant human DPP4
Experimental: The compounds according to the present technology were evaluated in terms of the inhibitory effect on the activity of dipeptidyl peptidases including FAP by using a substrate producing fluorescent substances upon enzymatic decomposition. The test was conducted at 25° C. to get a final reaction volume of 100 μL in a 96 black well plate. […] Briefly, the test compounds were dissolved in dimethyl sulfoxide (DMSO) at a concentration of 20 mM and then subjected to serial dilution, thereby creating an 8 point curve. As for the control group, a 6 point curve created by serial dilution of Talabostat in the same buffer solution was used. Fluorescence intensity was measured using a microplate reader (Flexstation3, Molecular Devices) under the wavelength condition exciting at 380 nm and reading the emission at 460 nm. The inhibitory effect of the test compounds was measured as a decrease (%) in the signal rate as compared to the control group without any inhibitor. Data was fixed to a logistic model with four variables and IC50 value was calculated using GraphPad Prism program. As for recombinant human DPP4 (R&D Systems), 25 mM tris (pH 8.0) buffer as a buffer solution and H-Gly-Pro-AMC (Bachem) as a substrate were used. As for recombinant human DPP7 (R&D Systems), 25 mM MES (pH 6.0) buffer as a buffer solution and Lys-Pro-AMC (Bachem) as a substrate were used. As for recombinant human DPP8 (PBS Bioscience), as a buffer solution, a 10 mM tris (pH 7.4) buffer comprising 10 mM of magnesium chloride and 0.05% of Tween 20, and Z-Ala-Pro-AMC (BPS Bioscience) as a substrate were used. As for recombinant human DPP9 (R&D Systems), a 25 mM tris (pH 8.0) buffer as a buffer solution and H-Gly-Pro-AMC (Bachem) as a substrate were used. As for recombinant human PREP (R&D System), as a buffer solution, a 25 mM tris (pH 7.5) buffer comprising 250 mM sodium chloride and 2.5 mM DTT (Dithiolthreitol), and Z-Gly-Pro-AMC (Bachem) as a substrate were used. The evaluation was made by using 10 ng of DPP4, PDD7, and PREP, 20 ng of DPP8, and 50 ng of DPP9 based on the final reaction. In the evaluation of DPP4, the test compounds were subjected to serial dilution in a buffer under the condition containing up to 0.1% of DMSO. In the evaluation of DPP7, DPP8, DPP9, and PREP, the test compounds were subjected to serial dilution in each buffer under the condition containing up to 0.5% of DMSO.

Recombinant human FAP = target: T1, Recombinant human FAP (Homo sapiens, UniProt Q12884); assay: FAP inhibition, fluorogenic substrate Z-Gly-Pro-AMC; assay type: biochemical; details: for inhibition at 1 µM: read-out: hFAP inhibition % at 1 μM
T1 construct: purchased R&D systems
T1 sequence (Q12884 1-760): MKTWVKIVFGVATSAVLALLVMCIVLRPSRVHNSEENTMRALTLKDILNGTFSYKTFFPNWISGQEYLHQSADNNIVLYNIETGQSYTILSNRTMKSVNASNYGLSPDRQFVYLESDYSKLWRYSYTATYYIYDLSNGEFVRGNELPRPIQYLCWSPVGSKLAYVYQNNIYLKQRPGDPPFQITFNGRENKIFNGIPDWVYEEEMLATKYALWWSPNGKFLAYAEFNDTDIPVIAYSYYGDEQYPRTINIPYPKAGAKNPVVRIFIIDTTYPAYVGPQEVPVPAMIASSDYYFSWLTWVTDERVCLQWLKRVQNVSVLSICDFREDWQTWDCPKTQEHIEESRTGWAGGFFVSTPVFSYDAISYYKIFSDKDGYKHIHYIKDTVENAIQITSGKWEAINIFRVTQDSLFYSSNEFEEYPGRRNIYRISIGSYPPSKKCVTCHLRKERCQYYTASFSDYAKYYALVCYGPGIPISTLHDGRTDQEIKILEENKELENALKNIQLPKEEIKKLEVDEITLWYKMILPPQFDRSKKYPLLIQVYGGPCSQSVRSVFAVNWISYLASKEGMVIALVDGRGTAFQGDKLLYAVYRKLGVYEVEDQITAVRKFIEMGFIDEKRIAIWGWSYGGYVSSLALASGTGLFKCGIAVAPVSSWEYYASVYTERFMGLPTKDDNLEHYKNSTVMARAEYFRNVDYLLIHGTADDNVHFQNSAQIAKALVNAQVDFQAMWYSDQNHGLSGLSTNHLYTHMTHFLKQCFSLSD
Experimental: The compounds according to the present technology were evaluated in terms of the inhibitory effect on the activity of dipeptidyl peptidases including FAP by using a substrate producing fluorescent substances upon enzymatic decomposition. The test was conducted at 25° C. to get a final reaction volume of 100 μL in a 96 black well plate. […] Briefly, the test compounds were dissolved in dimethyl sulfoxide (DMSO) at a concentration of 20 mM and then subjected to serial dilution, thereby creating an 8 point curve. As for the control group, a 6 point curve created by serial dilution of Talabostat in the same buffer solution was used. Fluorescence intensity was measured using a microplate reader (Flexstation3, Molecular Devices) under the wavelength condition exciting at 380 nm and reading the emission at 460 nm. The inhibitory effect of the test compounds was measured as a decrease (%) in the signal rate as compared to the control group without any inhibitor. Data was fixed to a logistic model with four variables and IC50 value was calculated using GraphPad Prism program. Recombinant human FAP (R&D systems) was diluted with 50 mM tris (pH 7.5) buffer comprising 1 M of sodium chloride and 1 mg/ml of bovine serum albumin (BSA) to be 10 ng per final reaction. The test compounds were subjected to serial dilution in a buffer under the condition containing up to 0.1% of DMSO. Z-Gly-Pro-AMC (Bachem) was used as a substrate. By dissolving in DMSO and then diluting in the same buffer, the substrate was added to be […] per final reaction.

[1] = 25° C., Z-Gly-Pro-AMC substrate
[2] = recombinant human FAP, substrate Z-Gly-Pro-AMC

Sequence of DPP4 (P27487 whole entry): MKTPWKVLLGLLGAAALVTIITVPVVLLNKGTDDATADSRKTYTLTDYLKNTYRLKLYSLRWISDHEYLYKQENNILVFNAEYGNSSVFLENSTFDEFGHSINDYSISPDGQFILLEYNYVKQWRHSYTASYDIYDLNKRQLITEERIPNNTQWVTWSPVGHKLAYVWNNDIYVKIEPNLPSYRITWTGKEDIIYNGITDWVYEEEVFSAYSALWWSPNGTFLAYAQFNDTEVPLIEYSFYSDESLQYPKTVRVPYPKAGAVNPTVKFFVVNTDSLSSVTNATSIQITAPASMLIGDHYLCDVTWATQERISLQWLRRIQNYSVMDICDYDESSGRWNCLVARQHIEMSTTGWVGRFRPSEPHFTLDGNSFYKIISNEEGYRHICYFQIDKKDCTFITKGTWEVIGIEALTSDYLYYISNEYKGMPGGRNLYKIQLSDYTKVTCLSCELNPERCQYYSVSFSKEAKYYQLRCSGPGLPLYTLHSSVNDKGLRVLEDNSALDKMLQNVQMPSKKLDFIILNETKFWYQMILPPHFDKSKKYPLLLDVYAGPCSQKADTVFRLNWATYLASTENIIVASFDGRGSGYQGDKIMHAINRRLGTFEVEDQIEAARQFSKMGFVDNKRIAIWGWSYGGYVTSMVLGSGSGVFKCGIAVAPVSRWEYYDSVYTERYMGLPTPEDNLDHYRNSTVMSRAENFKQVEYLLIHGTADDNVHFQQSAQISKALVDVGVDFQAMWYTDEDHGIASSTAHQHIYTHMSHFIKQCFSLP

Row | Compound | IC50 (Recombinant human FAP; [1]) [nM] | inhibition at 1 µM (DPP4) [%] | other results
1 | N#C[C@@H]1CCCN1C(=O)CN1CC[C@H](NC(=O)c2cccc3ccoc23)C1 [Example 58, N—((S)-1-(2-((S)-2-cyanopyrrolidin-1-yl)-2-oxoethyl)pyrrolidin-3-yl)benzofuran-7-carboxamide] | 62.5 |  | hDPP4 inhibition % at 1 μM (DPP4): No inhibition**
2 | N#C[C@@H]1CCCN1C(=O)CN1CC[C@@H](C(=O)Nc2ccnc3ccccc23)C1 [Example 2, (R)-1-(2-((S)-2-cyanopyrrolidin-1-yl)-2-oxoethyl)-N-(quinolin-4-yl)pyrrolidine-3-carboxamide] | 84.5 | 14.6 | 
3 | N#C[C@@H]1CCCN1C(=O)CN1CC[C@H](NC(=O)c2cnc3ccccc3c2)C1 [Example 31, N—((S)-1-(2-((S)-2-cyanopyrrolidin-1-yl)-2-oxoethyl)pyrrolidin-3-yl)quinoline-3-carboxamide] | 164 | 5.4 | 
4 | N#C[C@@H]1CCCN1C(=O)CN1CC[C@H](Oc2ccccc2-c2nc3ccccc3o2)C1 [Example 97, (S)-1-(2-((S)-3-(2-(benzo[d]oxazol-2-yl)phenoxy)pyrrolidin-1-yl)acetyl)pyrrolidine-2-carbonitrile] |  | 8.3 | inhibition at 1 µM (Recombinant human FAP): 36.3%
5 | CN(c1ccc2ccccc2n1)[C@@H]1CCN(CC(=O)N2CCC[C@H]2C#N)C1 [Example 137, (2S)-1-[2-[(3R)-3-[methyl(2-quinolyl)amino]pyrrolidin-1-yl]acetyl]pyrrolidine-2-carbonitrile] | 86.1 |  | 
6 | N#C[C@@H]1CCCN1C(=O)CN1CC[C@H](Oc2ccccc2-c2cc[nH]n2)C1 [Example 72, (S)-1-(2-((S)-3-(2-(1H-pyrazol-3-yl)phenoxy)pyrrolidin-1-yl)acetyl)pyrrolidine-2-carbonitrile] | 101 | 0.8 | 
7 | N#C[C@@H]1C[C@H](F)CN1C(=O)CN1CCC(Nc2cccc3ncc(Cl)cc23)CC1 [Example 333, (2S,4S)-1-[2-[4-[(3-chloro-5-quinolyl)amino]-1-piperidyl]acetyl]-4-fluoro-pyrrolidine-2-carbonitrile] |  |  | IC50 (DPP4): 7540 nM; IC50 (Recombinant human FAP; [2]): 2.6 nM
8 | N#C[C@@H]1CCCN1C(=O)CN1CC[C@H](Oc2ccccc2Cc2ccccc2)C1 [Example 90, (S)-1-(2-((S)-3-(2-benzylphenoxy)pyrrolidin-1-yl)acetyl)pyrrolidine-2-carbonitrile] |  | 7.7 | inhibition at 1 µM (Recombinant human FAP): 52.9%
9 | N#C[C@@H]1CCCN1C(=O)CN1CC[C@@H](C(=O)Nc2cnc3ccccc3c2)C1 [Example 1, (R)-1-(2-((S)-2-cyanopyrrolidin-1-yl)-2-oxoethyl)-N-(quinolin-3-yl)pyrrolidine-3-carboxamide] | 163 | 4.4 | 
10 | N#C[C@@H]1CCCN1C(=O)CN1CC[C@H](Oc2ccnc3c(F)c(F)ccc23)C1 [Example 85, (S)-1-(2-((S)-3-((7,8-difluoroquinolin-4-yl)oxy)pyrrolidin-1-yl)acetyl)pyrrolidine-2-carbonitrile] | 19.9 | 5.9 | 
11 | CN(c1cccc2ncccc12)C1CCN(CC(=O)N2CCC[C@H]2C#N)CC1 [Example 309, (2S)-1-[2-[4-[methyl(5-quinolyl)amino]-1-piperidyl]acetyl]pyrrolidine-2-carbonitrile] |  |  | IC50 (DPP4): > 10000 nM; IC50 (Recombinant human FAP; [2]): 68.3 nM
12 | N#C[C@@H]1CCCN1C(=O)CN1CC[C@H](Oc2cccc3c2CCC(=O)N3)C1 [Example 76, (S)-1-(2-((S)-3-((2-oxo-1,2,3,4-tetrahydroquinolin-5-yl)oxy)pyrrolidin-1-yl)acetyl)pyrrolidine-2-carbonitrile] | 53.6 |  | hDPP4 inhibition % at 1 μM (DPP4): No inhibition**
13 | N#C[C@@H]1CCCN1C(=O)CN1CC[C@H](Oc2cccc3c(Cl)ncnc23)C1 [Example 73, (S)-1-(2-((S)-3-((4-chloroquinazolin-8-yl)oxy)pyrrolidin-1-yl)acetyl)pyrrolidine-2-carbonitrile] |  | 1.2 | inhibition at 1 µM (Recombinant human FAP): 97.1%
14 | Cc1ccc2occ(C(=O)N[C@H]3CCN(CC(=O)N4CCC[C@H]4C#N)C3)c2c1 [Example 52, N—((S)-1-(2-((S)-2-cyanopyrrolidin-1-yl)-2-oxoethyl)pyrrolidin-3-yl)-5-methylbenzofuran-3-carboxamide] | 13.6 | 0.5 | 
15 | CN(c1ccc2cccnc2c1)[C@@H]1CCN(CC(=O)N2CCC[C@H]2C#N)C1 [Example 141, (2S)-1-[2-[(3R)-3-[methyl(7-quinolyl)amino]pyrrolidin-1-yl]acetyl]pyrrolidine-2-carbonitrile] | 34.1 |  | 
16 | N#C[C@@H]1C[C@H](F)CN1C(=O)CN1CC[C@@H](Nc2cccc3cccnc23)C1 [Example 169, (2S,4S)-4-fluoro-1-[2-[(3R)-3-(8-quinolylamino)pyrrolidin-1-yl]acetyl]pyrrolidine-2-carbonitrile] |  |  | IC50 (Recombinant human FAP; [2]): 35.4 nM
17 | N#C[C@@H]1CCCN1C(=O)CN1CC[C@@H](Nc2cccc3cccnc23)C1 [Example 164, (2S)-1-[2-[(3R)-3-(8-quinolylamino)pyrrolidin-1-yl]acetyl]pyrrolidine-2-carbonitrile] |  |  | IC50 (Recombinant human FAP; [2]): 56.8 nM
18 | N#C[C@@H]1C[C@H](F)CN1C(=O)CN1CC[C@@H](Nc2ccc3cccnc3c2)C1 [Example 168, (2S,4S)-4-fluoro-1-[2-[(3R)-3-(7-quinolylamino)pyrrolidin-1-yl]acetyl]pyrrolidine-2-carbonitrile] |  |  | IC50 (Recombinant human FAP; [2]): 11.5 nM
19 | CN(c1ccnc2ccccc12)[C@H]1CCN(CC(=O)N2CCC[C@H]2C#N)C1 [Example 143, (2S)-1-[2-[(3S)-3-[methyl(4-quinolyl)amino]pyrrolidin-1-yl]acetyl]pyrrolidine-2-carbonitrile] | 55.4 |  | 
20 | N#C[C@@H]1CCCN1C(=O)CN1CC[C@@H](Nc2ccc3cccnc3c2)C1 [Example 163, (2S)-1-[2-[(3R)-3-(7-quinolylamino)pyrrolidin-1-yl]acetyl]pyrrolidine-2-carbonitrile] |  |  | IC50 (Recombinant human FAP; [2]): 29 nM
21 | CN(c1cncc2ccccc12)[C@H]1CCN(CC(=O)N2CCC[C@H]2C#N)C1 [Example 147, (2S)-1-[2-[(3S)-3-[4-isoquinolyl(methyl)amino]pyrrolidin-1-yl]acetyl]pyrrolidine-2-carbonitrile] | 14.7 |  | 

Reference: patent US11655235B2, “Pyrrolidine and piperidine compounds” (YUHAN CORPORATION, priority 2019, dated 2023)
